Measurements: ChEMBL document CHEMBL5260811, “Drug development against tuberculosis: Impact of alkaloids” (Eur J Med Chem, 2017)
Converted amounts (≈) assume the structure as drawn. Starred links: 1 amine or outer side, 2 acyl side, 3 side chain; linkers in the order of their positions; H or OH if unused. Positions of bridges follow the written chain, without caps; N, C: chain ends. Non-standard residues stand in square brackets, D forms with d. Residues, ends and D or L forms follow the SMILES beside them. *: point of attachment. X1 = NC1=N[C@@H]([C@H](N[*:1])C(=O)[*:2])C[C@H](O)N1; ΔAla(Z-3-ureido) = NC(=O)N/C=C(\N)C(=O)O; β3hOrn = NCCC[C@H](N)CC(=O)*; Dap = NC[C@H](N)C(=O)O

Assays:
[1] = tested on: Mycobacterium tuberculosis; assay: Antimycobacterial activity against Mycobacterium tuberculosis Rv0701 harbouring rplC gene; format: functional
[2] = tested on: Mycobacterium tuberculosis; assay: Antimycobacterial activity against multi-drug resistant Mycobacterium tuberculosis; format: functional
[3] = tested on: Mycobacterium tuberculosis; assay: Antimycobacterial activity against Mycobacterium tuberculosis Rv2163c harbouring pbpB gene; format: functional
[4] = tested on: Mycobacterium tuberculosis; assay: Antimycobacterial activity against Mycobacterium tuberculosis Rv2163c harbouring ftsI gene; format: functional
[5] = tested on: Mycobacterium tuberculosis; assay: Antimycobacterial activity against Mycobacterium tuberculosis Rv1484 harbouring inhA gene; format: functional
[6] = tested on: Mycobacterium tuberculosis; assay: Antimycobacterial activity against Mycobacterium tuberculosis harbouring pncA gene; format: functional
[7] = tested on: Mycobacterium tuberculosis; assay: Antimycobacterial activity against Mycobacterium tuberculosis Rv0005 harbouring gyrB gene; format: functional
[8] = tested on: Mycobacterium tuberculosis; assay: Antimycobacterial activity against Mycobacterium tuberculosis Rv0006 harbouring gyrA gene; format: functional
[9] = tested on: Mycobacterium tuberculosis; assay: Antimycobacterial activity against Mycobacterium tuberculosis harbouring embCAB gene; format: functional
[10] = tested on: Mycobacterium tuberculosis; assay: Antimycobacterial activity against Mycobacterium tuberculosis Rv3790 harbouring DprE1 gene; format: functional
[11] = tested on: Mycobacterium tuberculosis; assay: Antimycobacterial activity against Mycobacterium tuberculosis Rv2068c harbouring blaC gene; format: functional
[12] = tested on: Mycobacterium tuberculosis; assay: Antimycobacterial activity against Mycobacterium tuberculosis Rv0050 harbouring ponA1 gene; format: functional
[13] = tested on: Mycobacterium tuberculosis; assay: microbe, parasite or virus in culture
[14] = tested on: Mycobacterium tuberculosis; assay: Antimycobacterial activity against Mycobacterium tuberculosis harbouring katG gene; format: functional
[15] = tested on: Mycobacterium tuberculosis; assay: microbe, parasite or virus in culture; remark: listed apart in the source
[16] = tested on: Mycobacterium tuberculosis; assay: Antimycobacterial activity against Mycobacterium tuberculosis harbouring rpsL gene; format: functional
[17] = tested on: Mycobacterium tuberculosis; assay: Antimycobacterial activity against Mycobacterium tuberculosis harbouring rrs gene; format: functional
[18] = tested on: Mycobacterium tuberculosis; assay: Antimycobacterial activity against Mycobacterium tuberculosis Rv1302 harbouring wecA gene; format: functional
[19] = tested on: Mycobacterium tuberculosis; assay: Antimycobacterial activity against Mycobacterium tuberculosis Rv1302 harbouring rfe gene; format: functional
[20] = tested on: Mycobacterium tuberculosis; assay: Antimycobacterial activity against Mycobacterium tuberculosis harbouring vph gene; format: functional
[21] = tested on: Mycobacterium tuberculosis; assay: Antimycobacterial activity against Mycobacterium tuberculosis 000019 harbouring rrs gene; format: functional

`O=C([C@@H](O)CO)N1CC=C(c2c(F)cc(N3C[C@H](COc4ccon4)OC3=O)cc2F)CC1` [POSIZOLID] was tested, and the MIC [1] was 250 ng/mL (≈ 0.537 µM).
For `O=C1c2ccccc2-n2c1nc1ccccc1c2=O` [TRYPTANTHRIN], the MIC [2] was 0.016 ng/mL (≈ 6.45e-05 µM).
With `CC1(C)C[C@@H]1C(=O)N/C(=C\CCCCSC[C@H](N)C(=O)O)C(=O)O` [CILASTATIN] the MIC [3] was 160 ng/mL (≈ 0.446 µM) and the MIC [4] was 160 ng/mL (≈ 0.446 µM).
`CCCc1cc(C(N)=S)ccn1` [PROTIONAMIDE] showed an MIC [5] of 300 ng/mL (≈ 1.66 µM).
Work on `NC(=O)c1cnccn1` [PYRAZINAMIDE] yielded an MIC [6] of 20000 ng/mL (≈ 162 µM).
`COc1c(N2CCNC(C)C2)c(F)cc2c(=O)c(C(=O)O)cn(C3CC3)c12` (centres undefined) [GATIFLOXACIN] showed an MIC [7] of 1000 ng/mL (≈ 2.66 µM) and an MIC [8] of 1000 ng/mL (≈ 2.66 µM).
Work on `CC[C@@H](CO)NCCN[C@@H](CC)CO` [ETHAMBUTOL] yielded an MIC [9] of 1000 ng/mL (≈ 4.89 µM).
`CC(=O)NC[C@H]1CN(c2ccc(N3CCSCC3)c(F)c2)C(=O)O1` [SUTEZOLID] gave an MIC [1] of 500 ng/mL (≈ 1.41 µM).
For `O=c1nc(N2CCN(CC3CCCCC3)CC2)sc2c([N+](=O)[O-])cc(C(F)(F)F)cc12` [MACOZINONE], the MIC [10] was 0.3 ng/mL (≈ 0.000657 µM).
`CC1(C)S[C@@H]2[C@H](NC(=O)[C@H](N)c3ccc(O)cc3)C(=O)N2[C@H]1C(=O)O` [AMOXICILLIN] was tested, and the MIC [11] was 10000 ng/mL (≈ 27.4 µM) and the MIC [12] was 10000 ng/mL (≈ 27.4 µM).
With `CCc1cc(C(N)=S)ccn1` [ETHIONAMIDE] the MIC [13] was 600 ng/mL (≈ 3.61 µM).
With `NNC(=O)c1ccncc1` [ISONIAZID] the MIC [14] was 10 ng/mL (≈ 0.0729 µM), the MIC [13] was 10 ng/mL (≈ 0.0729 µM) and the MIC [15] was 10 ng/mL (≈ 0.0729 µM).
Work on `C[C@H]1COc2c(N3CCN(C)CC3)c(F)cc3c(=O)c(C(=O)O)cn1c23.C[C@H]1COc2c(N3CCN(C)CC3)c(F)cc3c(=O)c(C(=O)O)cn1c23.O` [LEVOFLOXACIN] yielded an MIC [7] of 500 ng/mL and an MIC [8] of 500 ng/mL.
`CN[C@@H]1[C@H](O[C@H]2[C@H](O[C@H]3[C@H](O)[C@@H](O)[C@H](N=C(N)N)[C@@H](O)[C@@H]3N=C(N)N)O[C@@H](C)[C@]2(O)C=O)O[C@@H](CO)[C@H](O)[C@H]1O` [STREPTOMYCIN] gave an MIC [16] of 2000 ng/mL (≈ 3.44 µM) and an MIC [17] of 2000 ng/mL (≈ 3.44 µM).
`CCCCc1ccc(NC(=O)C2=CCN(C)[C@@H]([C@H](O[C@@H]3O[C@H](CN)[C@@H](O)[C@H]3O)[C@H]3O[C@@H](n4ccc(=O)[nH]c4=O)[C@H](O)[C@@H]3O)C(=O)N2C)cc1` was tested, and the MIC [18] was 1560 ng/mL (≈ 2.27 µM) and the MIC [19] was 1560 ng/mL (≈ 2.27 µM).
With `NCCC[C@H](N)CC(=O)N[C@H]1CNC(=O)[C@H]([C@H]2C[C@H](O)NC(N)=N2)NC(=O)/C(=C/NC(N)=O)NC(=O)[C@H](CO)NC(=O)[C@H](CO)NC1=O` [VIOMYCIN] (β3hOrn-[Dap]SS[ΔAla(Z-3-ureido)][X1]; lactam 1-C) the MIC [20] was 4000 ng/mL (≈ 5.83 µM).
In the case of `C[C@@H](O)[C@H]1C(=O)N2C(C(=O)O)=C(S[C@@H]3CN[C@H](C(=O)N(C)C)C3)[C@H](C)[C@H]12` [MEROPENEM], the MIC [3] is reported as 500 ng/mL (≈ 1.3 µM) and the MIC [11] is reported as 500 ng/mL (≈ 1.3 µM).
Compound `O=C(O)c1cn(C2CC2)c2cc(N3CCNCC3)c(F)cc2c1=O` [CIPROFLOXACIN] has an MIC [7] of 125 ng/mL (≈ 0.377 µM) and an MIC [8] of 125 ng/mL (≈ 0.377 µM).
`NCC[C@H](O)C(=O)N[C@@H]1C[C@H](N)[C@@H](O[C@H]2O[C@H](CN)[C@@H](O)[C@H](O)[C@H]2O)[C@H](O)[C@H]1O[C@H]1O[C@H](CO)[C@@H](O)[C@H](N)[C@H]1O` [AMIKACIN] gave an MIC [21] of 120 ng/mL (≈ 0.205 µM).
